# Measured values from patent publication US6403830B2, “Amidino compound and salts thereof useful as nitric oxide synthase inhibitors” (Pharmacia Corporation, priority 2000, dated 2002).
# Counter-ions that a name gives are not always drawn.
# Tests used:
# [1] = biological target: T1, human neuronal constitutive NOS (hncNOS) (Homo sapiens, UniProt P29475); assay: Citrulline assay for nitric oxide synthase, hncNOS; assay type: biochemical; details: recombinant enzyme, 30 μM L-arginine, calmodulin; averages across all experiments and all lots
# T1 construct: made in house; host or cells: Sf9 insect cells (baculovirus vector)
# T1 sequence (P29475 whole entry): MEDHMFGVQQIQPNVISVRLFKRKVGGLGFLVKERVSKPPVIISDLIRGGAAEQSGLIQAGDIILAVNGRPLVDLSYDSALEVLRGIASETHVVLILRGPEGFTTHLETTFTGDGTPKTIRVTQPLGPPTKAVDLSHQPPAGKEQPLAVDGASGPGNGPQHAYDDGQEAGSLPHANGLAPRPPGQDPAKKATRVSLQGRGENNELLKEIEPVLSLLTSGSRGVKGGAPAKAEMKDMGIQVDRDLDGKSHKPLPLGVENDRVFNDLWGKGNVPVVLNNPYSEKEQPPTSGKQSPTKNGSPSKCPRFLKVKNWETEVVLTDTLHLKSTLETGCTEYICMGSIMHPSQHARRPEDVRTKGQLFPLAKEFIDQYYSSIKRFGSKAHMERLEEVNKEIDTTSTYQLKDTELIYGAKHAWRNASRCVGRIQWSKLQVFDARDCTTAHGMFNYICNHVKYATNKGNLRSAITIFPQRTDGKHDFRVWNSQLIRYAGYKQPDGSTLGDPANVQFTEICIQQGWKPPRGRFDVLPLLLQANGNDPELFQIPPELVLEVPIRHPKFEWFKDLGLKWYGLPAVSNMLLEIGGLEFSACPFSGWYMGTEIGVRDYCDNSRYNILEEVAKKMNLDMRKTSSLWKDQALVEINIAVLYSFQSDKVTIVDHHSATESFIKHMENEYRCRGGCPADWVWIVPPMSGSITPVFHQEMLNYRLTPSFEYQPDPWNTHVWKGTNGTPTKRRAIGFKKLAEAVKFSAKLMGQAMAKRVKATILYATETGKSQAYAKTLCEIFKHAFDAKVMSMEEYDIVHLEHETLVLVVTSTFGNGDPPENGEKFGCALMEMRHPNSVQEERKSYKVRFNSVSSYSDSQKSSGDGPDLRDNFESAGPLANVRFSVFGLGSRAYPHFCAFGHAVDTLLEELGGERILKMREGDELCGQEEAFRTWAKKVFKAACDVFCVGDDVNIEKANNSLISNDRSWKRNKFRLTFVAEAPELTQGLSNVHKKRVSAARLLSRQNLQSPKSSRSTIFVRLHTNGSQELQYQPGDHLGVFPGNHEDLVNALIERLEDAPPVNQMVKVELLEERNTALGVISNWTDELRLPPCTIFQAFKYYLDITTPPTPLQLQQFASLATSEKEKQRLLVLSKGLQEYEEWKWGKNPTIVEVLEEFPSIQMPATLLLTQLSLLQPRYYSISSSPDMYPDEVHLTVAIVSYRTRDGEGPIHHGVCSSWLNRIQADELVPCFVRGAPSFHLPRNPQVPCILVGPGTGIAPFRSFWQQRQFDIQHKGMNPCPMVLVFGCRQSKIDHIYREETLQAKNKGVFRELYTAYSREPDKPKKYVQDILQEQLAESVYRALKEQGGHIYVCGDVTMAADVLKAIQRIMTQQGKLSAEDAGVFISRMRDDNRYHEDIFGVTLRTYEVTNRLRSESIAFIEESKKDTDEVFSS
# Source text: (§1) Nitric oxide synthase (NOS) activity can be measured by monitoring the conversion of L-[2,3-^3H]-arginine to L-[2,3-^3H]-citrulline (Bredt and Snyder, Proc. Natl. Acad. Sci. U.S.A., 87, 682-685, 1990 and Moore et al, J. Med. Chem. 39, 669-672, 1996). Human inducible NOS (hiNOS), human endothelial constitutive NOS (hecNOS) and human neuronal constitutive NOS (hncNOS) are each cloned from RNA extracted from human tissue. The cDNA for human inducible NOS (hiNOS) is isolated from a λcDNA library made from RNA extracted from a colon sample from a patient with ulcerative colitis. The cDNA for human endothelial constitutive NOS (hecNOS) is isolated from a λcDNA library made from RNA extracted from human umbilical vein endothelial cells (HUVEC) and the cDNA for human neuronal constitutive NOS (hncNOS) is isolated from a λcDNA library made from RNA extracted from human cerebellum obtained from a cadaver. The recombinant enzymes are expressed in Sf9 insect cells using a baculovirus vector (Rodi et al, in The Biology of Nitric Oxide, Pt. 4: Enzymology, Biochemistry and Immunology: Moncada, S., Feelisch, M., Busse, R., Higgs, E., Eds.; Portland Press Ltd.: London, 1995; pp 447-450). Enzyme activity is isolated from soluble cell extracts and partially purified by DEAE-Sepharose chromatography. To measure NOS activity, 10 μL of enzyme is added to 40 μL of 50 mM Tris (pH 7.6) in the presence or absence of test compounds and the reaction initiated by the addition of 50 μL of a reaction mixture containing 50 mM Tris (pH 7.6), 2.0 mg/mL bovine serum albumin, 2.0 mM DTT, 4.0 mM CaCl2, 20 μM FAD, 100 μM tetrahydrobiopterin, 0.4 mM NADPH and 60 μM L-arginine containing 0.9 μCi of L-[2,3-^3H]-arginine. The final concentration of L-arginine in the assay is 30 μM. For hecNOS or hncNOS, calmodulin is included at a final concentration of 40-100 nM. Following incubation at 37° C. for 15 minutes, the reaction is terminated by addition of 400 μL of a suspension (1 part resin, 3 parts buffer) of Dowex 5OW X-8 cation exchange resin in a stop buffer containing 10 mM EGTA, 100 mM HEPES, pH 5.5 and 1 mM L-citrulline. After mixing the resin is allowed to settle and L-[2,3-^3H]-Citrulline formation is determined by counting aliquots of the supernatant with a liquid scintillation counter. Results are reported in Table 1 as the IC50 values of compounds for hiNOS, hecNOS and hncNOS.
# [2] = biological target: T2, human endothelial constitutive NOS (hecNOS) (Homo sapiens, UniProt P29474); assay: Citrulline assay for nitric oxide synthase, hecNOS; assay type: biochemical; details: recombinant enzyme, 30 μM L-arginine, calmodulin; averages across all experiments and all lots
# T2 construct: made in house; host or cells: Sf9 insect cells (baculovirus vector)
# T2 sequence (P29474 2-1203): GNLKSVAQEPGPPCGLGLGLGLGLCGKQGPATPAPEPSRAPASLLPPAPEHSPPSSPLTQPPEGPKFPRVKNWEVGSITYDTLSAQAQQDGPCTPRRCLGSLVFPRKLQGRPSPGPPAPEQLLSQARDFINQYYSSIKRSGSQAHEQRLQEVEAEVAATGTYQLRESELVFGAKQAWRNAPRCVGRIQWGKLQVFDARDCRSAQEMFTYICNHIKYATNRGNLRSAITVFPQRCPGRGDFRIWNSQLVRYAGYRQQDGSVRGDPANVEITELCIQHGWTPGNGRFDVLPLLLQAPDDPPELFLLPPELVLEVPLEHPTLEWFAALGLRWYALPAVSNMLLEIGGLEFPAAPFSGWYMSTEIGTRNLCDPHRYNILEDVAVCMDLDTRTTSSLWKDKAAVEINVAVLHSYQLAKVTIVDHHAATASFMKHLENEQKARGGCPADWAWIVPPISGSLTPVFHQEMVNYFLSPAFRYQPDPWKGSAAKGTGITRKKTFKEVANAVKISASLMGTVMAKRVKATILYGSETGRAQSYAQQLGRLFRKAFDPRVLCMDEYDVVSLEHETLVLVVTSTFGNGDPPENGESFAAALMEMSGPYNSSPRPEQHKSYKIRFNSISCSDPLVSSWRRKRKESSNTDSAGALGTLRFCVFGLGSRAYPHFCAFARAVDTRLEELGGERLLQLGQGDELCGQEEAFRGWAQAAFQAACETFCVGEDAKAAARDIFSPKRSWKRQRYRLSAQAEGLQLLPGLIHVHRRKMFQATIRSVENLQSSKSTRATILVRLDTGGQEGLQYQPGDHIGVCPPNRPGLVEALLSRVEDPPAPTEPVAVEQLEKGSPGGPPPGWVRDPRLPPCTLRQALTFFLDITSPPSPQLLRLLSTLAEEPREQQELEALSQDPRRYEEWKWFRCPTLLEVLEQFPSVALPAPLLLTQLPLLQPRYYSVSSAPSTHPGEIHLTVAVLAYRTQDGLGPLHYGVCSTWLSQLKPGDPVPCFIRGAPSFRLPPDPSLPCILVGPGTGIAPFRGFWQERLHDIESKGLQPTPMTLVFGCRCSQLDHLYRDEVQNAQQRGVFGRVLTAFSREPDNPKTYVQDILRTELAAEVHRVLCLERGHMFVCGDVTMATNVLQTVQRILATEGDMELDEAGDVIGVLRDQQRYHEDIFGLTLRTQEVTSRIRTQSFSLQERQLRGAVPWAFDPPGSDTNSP
# Source text: as §1
# [3] = biological target: T3, Human inducible NOS (hiNOS) (Homo sapiens, UniProt P35228); assay: Citrulline assay for nitric oxide synthase, hiNOS; assay type: biochemical; details: recombinant enzyme, 30 μM L-arginine; averages across all experiments and all lots
# T3 construct: made in house; host or cells: Sf9 insect cells (baculovirus vector)
# T3 sequence (P35228 whole entry): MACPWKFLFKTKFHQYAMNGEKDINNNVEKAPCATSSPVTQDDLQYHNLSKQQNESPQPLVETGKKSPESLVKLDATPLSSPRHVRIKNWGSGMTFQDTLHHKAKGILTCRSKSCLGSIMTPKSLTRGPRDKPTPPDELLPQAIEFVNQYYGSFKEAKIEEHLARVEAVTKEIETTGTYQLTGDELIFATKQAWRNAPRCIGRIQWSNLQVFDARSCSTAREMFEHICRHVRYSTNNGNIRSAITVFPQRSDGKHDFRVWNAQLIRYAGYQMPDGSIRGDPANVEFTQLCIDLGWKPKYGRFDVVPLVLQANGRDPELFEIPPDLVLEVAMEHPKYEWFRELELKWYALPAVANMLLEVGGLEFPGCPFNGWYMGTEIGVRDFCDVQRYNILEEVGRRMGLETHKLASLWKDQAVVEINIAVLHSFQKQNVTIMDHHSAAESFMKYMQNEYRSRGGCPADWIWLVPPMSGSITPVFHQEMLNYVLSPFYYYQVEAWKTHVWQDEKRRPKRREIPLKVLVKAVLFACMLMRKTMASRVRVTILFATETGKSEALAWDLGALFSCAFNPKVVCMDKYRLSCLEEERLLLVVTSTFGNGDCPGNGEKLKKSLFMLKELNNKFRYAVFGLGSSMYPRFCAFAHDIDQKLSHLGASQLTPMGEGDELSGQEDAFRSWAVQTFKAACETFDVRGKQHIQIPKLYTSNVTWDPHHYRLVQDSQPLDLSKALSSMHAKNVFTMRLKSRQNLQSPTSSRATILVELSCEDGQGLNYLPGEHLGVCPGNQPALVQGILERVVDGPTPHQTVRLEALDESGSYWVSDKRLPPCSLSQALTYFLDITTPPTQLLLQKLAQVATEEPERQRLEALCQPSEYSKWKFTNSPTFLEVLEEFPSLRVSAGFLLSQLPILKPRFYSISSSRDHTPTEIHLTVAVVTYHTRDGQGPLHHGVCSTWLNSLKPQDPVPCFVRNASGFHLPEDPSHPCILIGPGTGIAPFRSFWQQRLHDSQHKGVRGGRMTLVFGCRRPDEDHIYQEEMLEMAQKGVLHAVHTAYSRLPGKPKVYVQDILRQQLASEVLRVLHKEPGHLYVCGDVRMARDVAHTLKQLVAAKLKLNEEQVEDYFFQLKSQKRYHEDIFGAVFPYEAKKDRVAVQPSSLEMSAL
# Source text: as §1
# [4] = system: nitrite production in human cartilage explants induced with recombinant human IL-1β; assay: Human Cartilage Explant Assay; assay type: cell-based; details: inhibition of nitrite production, IL-1β-stimulated explants, averages across all experiments and all lots
Compound,IC50 [1] [µM],IC50 [2] [µM],IC50 [3] [µM],IC50 [4] [µM]
"COC[C@](N)(CSCCNC(C)=N)C(=O)O [Example 2, 2-[[[2-[(1-Iminoethyl)amino]ethyl]thio]methyl]-O-methyl-D-serine, dihydrochloride]",58,302,4.4,
"CC(=N)NCCSCC(C)(N)C(=O)O (stereo not drawn) [Example 16, S-[2-(1-Iminoethylamino)ethyl]-2-methyl-(D/L)-cysteine, bistrifluoroacetate]",36,> 100,7.2,0.7
"CC(=N)NCCSC[C@](C)(N)C(=O)O [Example 1, S-[2-[(1-Iminoethyl)amino]ethyl]-2-methyl-L-cysteine, dihydrochloride]",15,77,3.1,0.7
"CC[C@](N)(CSCCNC(C)=N)C(=O)O [Example 7, S-[2-[(1-Iminoethyl)amino]ethyl]-2-ethyl-L-cysteine, dihydrochloride]",17,78,3.4,

# The next lines start with results.
IC50 [1] [µM],IC50 [2] [µM],IC50 [3] [µM],Compound,IC50 [4] [µM]
6,26,0.9,"CC(=N)NCCSC[C@](N)(C(=O)O)C(C)C [Example 11, 2-[[[[2-(1-Iminoethyl)amino]ethyl]thio]methyl]-D-valine, dihydrochloride]",
181,> 100,12,"CC(=N)NCC[S+]([O-])C[C@](C)(N)C(=O)O (mixture of isomers) [Example 18, (2R)-2-Amino-3[[2-[(1-iminoethyl)amino]ethyl]sulfmyl]-2-methylpropanoic acid, dihydrochloride]",
220,1080,12,"CC(=N)NCCS(=O)(=O)C[C@](C)(N)C(=O)O [Example 19, (2R)-2-Amino-3[[2-[(1-iminoethyl)amino]ethyl]sulfonyl]-2-methylpropanoic acid dihydrochloride]",
539,1100,197,"CC(=N)NC[C@H](C)SC[C@](C)(N)C(=O)O [Example 4, S-[(1S)-2-[(1-Iminoethyl)aminol-1-methylethyl]-2-methyl-L-cysteine, dihydrochloride]",
86,266,74,"CC(=N)NC[C@@H](C)SC[C@](C)(N)C(=O)O [Example 3, S-[(1R)-2-[(1-Iminoethyl)amino]-1-methylethyl]-2-methyl-L-cysteine, dihydrochloride]",
